From patent publication EP1928842B1, “4-PHENYL-6-SUBSTITUTED-PYRIMIDINE-2-CARBONITRILE DERIVATIVES” (priority 2005, dated 2007)

Molecular target: T1, recombinant human Cathepsin K (Homo sapiens, UniProt P43235)
T1 sequence (P43235 115-329): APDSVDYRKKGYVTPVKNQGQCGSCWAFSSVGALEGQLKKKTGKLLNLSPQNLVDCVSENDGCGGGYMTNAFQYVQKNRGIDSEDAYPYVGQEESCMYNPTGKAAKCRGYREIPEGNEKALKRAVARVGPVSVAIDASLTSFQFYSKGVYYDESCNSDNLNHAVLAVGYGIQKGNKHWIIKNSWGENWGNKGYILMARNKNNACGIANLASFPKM
Assay: Cathepsin K activity: inhibition of recombinant human Cathepsin K (fluorogenic substrate Z-Phe-Arg-AMC)
Format: biochemical
Conditions: sodium acetate pH5.5, fluorescence at 10 minutes, read-out: pIC50 (negative logarithm of the IC50 concentration) for inhibition of human cathepsin K (converted)
Protocol: 10µl of a 1mg/l solution of activated recombinant human cathepsin K, in assay buffer, is then added to the well, yielding a final inhibitor concentration of 10µM. • Enzyme activity is determined by measuring the fluorescence of the liberated aminomethylcoumarin at […] using 390nm excitation, at 10 minutes. Percentage enzyme activity is calculated by comparison of this activity to that of a solution containing no inhibitor. Compounds are subsequently subjected to a dose response curve analysis in order to determine IC50 values for active compounds (where IC50 is the concentration of test compound causing 50 % inhibition of the enzymatic activity). Compounds of the invention typically have a pIC50 (negative logarithm of the IC50 concentration) for inhibition of human cathepsin K of more than 6, preferably more than 7 and most preferably a pIC50 of more than 8, such as for the compounds of Examples 1, 2a, 2b, 3, 5, 6, 8, 12, 14, 13, 16k, 16n, 16o, 17, 22a, 22b, 22c

- IC50: < 10 nM
SMILES: CC(C)N1CCN(c2cc(-c3cccc(C(F)(F)F)c3)nc(C#N)n2)CC1 [Example 3, 4-(4-Isopropyl-piperazin-1-yl)-6-(trifluoromethyl-phenyl)-pyrimidine-2-carbonitrile]
